Tests used:
[1] = molecular target: T1, Type-1 angiotensin II receptor (Bos taurus, UniProt P25104); experiment: Binding affinity for angiotensin II receptor of bovine adrenal cortex; assay type: tissue-based
T1 sequence (P25104 whole entry): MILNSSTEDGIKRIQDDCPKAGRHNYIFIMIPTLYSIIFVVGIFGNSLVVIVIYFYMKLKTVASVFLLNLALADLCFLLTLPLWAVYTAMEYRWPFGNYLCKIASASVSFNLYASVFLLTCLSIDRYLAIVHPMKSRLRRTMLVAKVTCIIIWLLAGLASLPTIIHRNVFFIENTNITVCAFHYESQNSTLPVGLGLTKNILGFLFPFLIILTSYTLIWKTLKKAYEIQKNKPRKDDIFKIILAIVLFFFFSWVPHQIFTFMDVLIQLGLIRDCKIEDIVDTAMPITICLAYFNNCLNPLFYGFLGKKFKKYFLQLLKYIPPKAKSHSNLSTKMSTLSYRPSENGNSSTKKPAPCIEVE

Rattus norvegicus = experiment: Tested for drop in blood pressure over 5 hr when administered orally at 10 mg/kg in high renin rat hypertension model; assay type: functional; details: route oral

**Q.** For `CCCOc1nc2ccc(C)cn2c(=O)c1Cc1ccc(-c2ccccc2-c2nn[nH]n2)cc1`, which IC50 [1] is on record?
**A.** 1.6 µM

**Q.** For `CC(C)COc1nc2ccc(C(C)O)cn2c(=O)c1Cc1ccc(-c2ccccc2-c2nn[nH]n2)cc1` (centres undefined), which IC50 [1] is on record?
**A.** 1 µM

**Q.** Which IC50 [1] does the source give for `CCCOc1nc2c(C)cccn2c(=O)c1Cc1ccc(-c2ccccc2-c2nn[nH]n2)cc1` here?
**A.** 6 µM

**Q.** With `Cc1ccc2nc(OC(C)C)c(Cc3ccc(-c4ccccc4-c4nnn[nH]4)cc3)c(=O)n2c1` as the compound, how does the IC50 [1] read?
**A.** 6 µM

**Q.** `COc1nc2ccccn2c(=O)c1Cc1ccc(-c2ccccc2-c2nn[nH]n2)cc1` was tested. Which IC50 [1] did it give?
**A.** 14 µM

**Q.** `CCOC(=O)c1ccc2nc(OC(C)C)c(Cc3ccc(-c4ccccc4-c4nn[nH]n4)cc3)c(=O)n2c1` was tested. Which IC50 [1] did it give?
**A.** 4.9 µM

**Q.** For `CC(C)Oc1nc2ccc(C(=O)O)cn2c(=O)c1Cc1ccc(-c2ccccc2-c2nnn[nH]2)cc1`, which IC50 [1] is on record?
**A.** 69.3 µM

**Q.** `CCCOc1nc2cc(C)ccn2c(=O)c1Cc1ccc(-c2ccccc2-c2nn[nH]n2)cc1` was tested. Which IC50 [1] did it give?
**A.** 4 µM

**Q.** `CCCOc1nc2ccccn2c(=O)c1Cc1ccc(-c2ccccc2-c2nn[nH]n2)cc1` was tested. Which IC50 [1] did it give?
**A.** 0.25 µM

**Q.** And the Blood pressure (Rattus norvegicus)?
**A.** 50 mmHg

**Q.** With `CCCCc1nc(Cl)c(CO)n1Cc1ccc(-c2ccccc2-c2nn[nH]n2)cc1` [LOSARTAN] as the compound, how does the IC50 [1] read?
**A.** 0.3 µM

**Q.** How did the IC50 [1] turn out when `CCOc1nc2ccccn2c(=O)c1Cc1ccc(-c2ccccc2-c2nnn[nH]2)cc1` was run?
**A.** 4.4 µM

**Q.** How did the IC50 [1] turn out when `Cc1ccc2nc(OCC(C)C)c(Cc3ccc(-c4ccccc4-c4nnn[nH]4)cc3)c(=O)n2c1` was run?
**A.** 4 µM

**Q.** How did the IC50 [1] turn out when `CCCCOc1nc2ccccn2c(=O)c1Cc1ccc(-c2ccccc2-c2nnn[nH]2)cc1` was run?
**A.** 2.4 µM

Reference: ChEMBL document CHEMBL1127870, “Substituted 4H-pyrido[1,2-a]pyrimidin-4-one angiotensin II receptor antagonists” (Bioorg Med Chem Lett, 1994)
